Measured values: PubChem BioAssay (NCI)
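Each compound was tested at five concentrations against cells in 96-well plates for 48 hours. Abbreviation: GI50, concentration required for 50% inhibition of growth. TGI marks complete inhibition of growth.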

Legend:
Assay in all cases: NCI anticancer screen, dose series, 48 h
[1] = tested on: SK-MEL-2 melanoma
[2] = tested on: OVCAR-3 ovarian
[3] = tested on: 786-0 renal
[4] = tested on: MDA-MB-231 breast
[5] = tested on: HL-60(TB) leukemia
[6] = tested on: SK-MEL-5 melanoma
[7] = tested on: T-47D breast
[8] = tested on: SN12C renal
[9] = tested on: CCRF-CEM leukemia
[10] = tested on: PC-3 prostate
[11] = tested on: BT-549 breast
[12] = tested on: SNB-19 CNS
[13] = tested on: OVCAR-5 ovarian
[14] = tested on: U251 CNS
[15] = tested on: SF-295 CNS
[16] = tested on: NCI-H460 lung
[17] = tested on: SF-539 CNS
[18] = tested on: EKVX NSCLC
[19] = tested on: SNB-75 CNS
[20] = tested on: KM12 colon
[21] = tested on: COLO 205 colon
[22] = tested on: ACHN renal
[23] = tested on: A549 NSCLC
[24] = tested on: TK-10 renal
[25] = tested on: MCF7 breast
[26] = tested on: HS 578T breast
[27] = tested on: UO-31 renal
[28] = tested on: MALME-3M melanoma
[29] = tested on: RXF 393 renal
[30] = tested on: NCI-H522 lung
[31] = tested on: SW-620 colon
[32] = tested on: HOP-62 NSCLC
[33] = tested on: NCI-H23 lung
[34] = tested on: OVCAR-8 ovarian
[35] = tested on: A498 renal
[36] = tested on: HCT-15 colon
[37] = tested on: SR leukemia
[38] = tested on: RPMI-8226 leukemia
[39] = tested on: MOLT-4 leukemia
[40] = tested on: HCC-2998 colon
[41] = tested on: SK-MEL-28 melanoma
[42] = tested on: NCI/ADR-RES ovarian
[43] = tested on: HOP-92 NSCLC
[44] = tested on: HT29 colon
[45] = tested on: SF-268 CNS
[46] = tested on: SK-OV-3 ovarian
[47] = tested on: DU-145 prostate
[48] = tested on: IGROV1 ovarian
[49] = tested on: K-562 leukemia
[50] = tested on: UACC-257 melanoma
[51] = tested on: OVCAR-4 ovarian
[52] = tested on: NCI-H226 lung
[53] = tested on: UACC-62 melanoma

Question: With C=CCn1c(SCC(=O)Nc2ccc(C(=O)/C=C/c3cc(OC)c(OC)c(OC)c3)cc2)nnc1-c1ccc(Cl)cc1 as the molecule, how does the GI50 [1] read?
Answer: The GI50 was 4.52 µM.

Question: And the TGI [1]?
Answer: The TGI was 36.6 µM.

Question: What about the GI50 [2] of the same molecule?
Answer: The GI50 was 2.41 µM.

Question: What about the TGI [2] of the same molecule?
Answer: Its TGI is 5.93 µM.

Question: And the GI50 [3]?
Answer: Its GI50 is 2.16 µM.

Question: And the TGI [3]?
Answer: Its TGI is 5.59 µM.

Question: And the GI50 [4]?
Answer: The GI50 was 3.08 µM.

Question: What about the TGI [4] of the same molecule?
Answer: Its TGI is > 100 µM.

Question: And the GI50 [5]?
Answer: The GI50 was 2.65 µM.

Question: And the TGI [5]?
Answer: Its TGI is 11.3 µM.

Question: And the GI50 [6]?
Answer: The GI50 was 2.53 µM.

Question: What about the TGI [6] of the same molecule?
Answer: The TGI was 14.3 µM.

Question: What about the GI50 [7] of the same molecule?
Answer: The GI50 was 2.24 µM.

Question: What about the TGI [7] of the same molecule?
Answer: The TGI was 30.6 µM.

Question: And the GI50 [8]?
Answer: Its GI50 is 3.43 µM.

Question: And the TGI [8]?
Answer: The TGI was > 100 µM.

Question: What about the GI50 [9] of the same molecule?
Answer: The GI50 was 2.38 µM.

Question: And the TGI [9]?
Answer: The TGI was 13.3 µM.

Question: And the GI50 [10]?
Answer: Its GI50 is 3.2 µM.

Question: And the TGI [10]?
Answer: The TGI was 26.4 µM.

Question: What about the GI50 [11] of the same molecule?
Answer: The GI50 was 2.4 µM.

Question: What about the TGI [11] of the same molecule?
Answer: The TGI was 7.79 µM.

Question: And the GI50 [12]?
Answer: The GI50 was 3.64 µM.

Question: And the TGI [12]?
Answer: The TGI was > 100 µM.

Question: What about the GI50 [13] of the same molecule?
Answer: The GI50 was 4.75 µM.

Question: What about the TGI [13] of the same molecule?
Answer: The TGI was 67.7 µM.

Question: What about the GI50 [14] of the same molecule?
Answer: The GI50 was 1.73 µM.

Question: And the TGI [14]?
Answer: Its TGI is 4.38 µM.

Question: And the GI50 [15]?
Answer: Its GI50 is 4.49 µM.

Question: What about the TGI [15] of the same molecule?
Answer: The TGI was 48.8 µM.

Question: And the GI50 [16]?
Answer: Its GI50 is 3.41 µM.

Question: What about the TGI [16] of the same molecule?
Answer: The TGI was 13.5 µM.

Question: What about the GI50 [17] of the same molecule?
Answer: Its GI50 is 2.96 µM.

Question: And the TGI [17]?
Answer: The TGI was 9.83 µM.

Question: What about the GI50 [18] of the same molecule?
Answer: The GI50 was 2.92 µM.

Question: And the TGI [18]?
Answer: The TGI was 15.5 µM.

Question: And the GI50 [19]?
Answer: Its GI50 is 1.79 µM.

Question: What about the TGI [19] of the same molecule?
Answer: Its TGI is 12.8 µM.

Question: What about the GI50 [20] of the same molecule?
Answer: Its GI50 is 1.97 µM.

Question: And the TGI [20]?
Answer: The TGI was 5.23 µM.

Question: What about the GI50 [21] of the same molecule?
Answer: Its GI50 is 4.92 µM.

Question: And the TGI [21]?
Answer: Its TGI is 67.3 µM.

Question: What about the GI50 [22] of the same molecule?
Answer: The GI50 was 3.67 µM.

Question: What about the TGI [22] of the same molecule?
Answer: The TGI was 22 µM.

Question: And the GI50 [23]?
Answer: Its GI50 is 3.61 µM.

Question: What about the TGI [23] of the same molecule?
Answer: The TGI was 17.3 µM.

Question: And the GI50 [24]?
Answer: The GI50 was 7.87 µM.

Question: What about the TGI [24] of the same molecule?
Answer: The TGI was 61.3 µM.

Question: And the GI50 [25]?
Answer: Its GI50 is 0.38 µM.

Question: And the TGI [25]?
Answer: Its TGI is 11.2 µM.

Question: What about the GI50 [26] of the same molecule?
Answer: Its GI50 is 5.81 µM.

Question: And the TGI [26]?
Answer: The TGI was > 100 µM.

Question: And the GI50 [27]?
Answer: Its GI50 is 1.98 µM.

Question: What about the TGI [27] of the same molecule?
Answer: Its TGI is 8.34 µM.

Question: And the GI50 [28]?
Answer: Its GI50 is 6.69 µM.

Question: And the TGI [28]?
Answer: The TGI was 61.5 µM.

Question: And the GI50 [29]?
Answer: Its GI50 is 1.47 µM.

Question: What about the TGI [29] of the same molecule?
Answer: Its TGI is 3.37 µM.

Question: What about the GI50 [30] of the same molecule?
Answer: The GI50 was 3.25 µM.

Question: What about the TGI [30] of the same molecule?
Answer: The TGI was 17.4 µM.

Question: And the GI50 [31]?
Answer: The GI50 was 3 µM.

Question: And the TGI [31]?
Answer: The TGI was > 100 µM.

Question: And the GI50 [32]?
Answer: Its GI50 is 3.76 µM.

Question: What about the TGI [32] of the same molecule?
Answer: Its TGI is 23.8 µM.

Question: What about the GI50 [33] of the same molecule?
Answer: Its GI50 is 2.7 µM.

Question: And the TGI [33]?
Answer: Its TGI is 10.5 µM.

Question: And the GI50 [34]?
Answer: The GI50 was 2.79 µM.

Question: And the TGI [34]?
Answer: Its TGI is 15 µM.

Question: What about the GI50 [35] of the same molecule?
Answer: Its GI50 is 2.47 µM.

Question: And the TGI [35]?
Answer: Its TGI is 10.6 µM.

Question: And the GI50 [36]?
Answer: The GI50 was 2.68 µM.

Question: And the TGI [36]?
Answer: The TGI was 18.8 µM.

Question: And the GI50 [37]?
Answer: Its GI50 is 1.52 µM.

Question: What about the TGI [37] of the same molecule?
Answer: The TGI was 7.45 µM.

Question: What about the GI50 [38] of the same molecule?
Answer: The GI50 was 0.253 µM.

Question: What about the TGI [38] of the same molecule?
Answer: Its TGI is 1.03 µM.

Question: And the GI50 [39]?
Answer: The GI50 was 2.66 µM.

Question: What about the TGI [39] of the same molecule?
Answer: Its TGI is 11.4 µM.

Question: What about the GI50 [40] of the same molecule?
Answer: Its GI50 is 2.36 µM.

Question: What about the TGI [40] of the same molecule?
Answer: The TGI was 5.67 µM.

Question: What about the GI50 [41] of the same molecule?
Answer: Its GI50 is 4.23 µM.

Question: What about the TGI [41] of the same molecule?
Answer: The TGI was 54.6 µM.

Question: What about the GI50 [42] of the same molecule?
Answer: Its GI50 is 4.74 µM.

Question: What about the TGI [42] of the same molecule?
Answer: Its TGI is > 100 µM.

Question: What about the GI50 [43] of the same molecule?
Answer: Its GI50 is 2.47 µM.

Question: And the TGI [43]?
Answer: Its TGI is 11.8 µM.

Question: What about the GI50 [44] of the same molecule?
Answer: The GI50 was 2.33 µM.

Question: And the TGI [44]?
Answer: The TGI was 5.69 µM.

Question: What about the GI50 [45] of the same molecule?
Answer: Its GI50 is 4.32 µM.

Question: What about the TGI [45] of the same molecule?
Answer: The TGI was > 100 µM.

Question: And the GI50 [46]?
Answer: The GI50 was 6.01 µM.

Question: And the TGI [46]?
Answer: Its TGI is 58.3 µM.

Question: And the GI50 [47]?
Answer: Its GI50 is 3.73 µM.

Question: What about the TGI [47] of the same molecule?
Answer: The TGI was 40.9 µM.

Question: What about the GI50 [48] of the same molecule?
Answer: Its GI50 is 2.76 µM.

Question: What about the TGI [48] of the same molecule?
Answer: The TGI was 13 µM.

Question: And the GI50 [49]?
Answer: Its GI50 is 1.7 µM.

Question: And the TGI [49]?
Answer: The TGI was 10.5 µM.

Question: And the GI50 [50]?
Answer: The GI50 was 6.38 µM.

Question: And the TGI [50]?
Answer: Its TGI is 59.6 µM.

Question: What about the GI50 [51] of the same molecule?
Answer: Its GI50 is 3.1 µM.

Question: What about the TGI [51] of the same molecule?
Answer: Its TGI is 21 µM.

Question: And the GI50 [52]?
Answer: Its GI50 is 1.94 µM.

Question: What about the TGI [52] of the same molecule?
Answer: The TGI was 7.42 µM.

Question: What about the GI50 [53] of the same molecule?
Answer: The GI50 was 2.94 µM.

Question: And the TGI [53]?
Answer: Its TGI is 25 µM.
